Reference: patent US20060069132A1, “Azolecarboxamide herbicides” (priority 2004, published 2006)

Legend:
pigweed = experiment: Test B pre-/postemergence herbicide test; type: in vivo, Amaranthus retroflexus; details: for Pigweed plant response rating: postemergence
Summary of the method: (§1)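 Response was scored visually 13 to 15 days after treatment against untreated greenhouse controls, 0 meaning no effect and 100 complete control. Formulations (solvent mixture plus surfactant) went onto soil after planting, onto foliage of 1- to 4-leaf plants, and onto 2-leaf plants in a flooded paddy set including rice and barnyardgrass.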

velvetleaf [1] = experiment: Test A pre-/postemergence herbicide test; type: in vivo, Abutilon theophrasti
Summary of the method: (§2)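 Visual injury scores on a 0–100 scale (100 = complete control) taken about ten days post-treatment in greenhouse against untreated controls; dash means no result. Treatments: preemergence soil spray and postemergence spray to runoff on one- to two-leaf plants 2 to 10 cm tall, surfactant-containing formulation.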

redroot pigweed = experiment: Test A pre-/postemergence herbicide test; type: in vivo, Amaranthus retroflexus
Summary of the method: as §2

blackgrass = experiment: Test B postemergence herbicide test; type: in vivo, Alopecurus myosuroides; details: postemergence
Summary of the method: (§3)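 Plants grow to 1- to 4-leaf stage (2–18 cm) for postemergence spraying, or to 2-leaf stage for the paddy test. Formulated compound is applied. Greenhouse holding lasts 13–15 days. Response is scored visually relative to controls, 0 no effect to 100 complete control; a dash means no result.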

wild oat = experiment: Test B postemergence herbicide test; type: in vivo, Avena fatua; details: postemergence
Summary of the method: (§4)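 Treated at 2-leaf (paddy) or 1–4-leaf, 2–18 cm (postemergence); greenhouse 13–15 d; visual score vs control, 0 none to 100 complete control; dash = not tested.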

barnyardgrass [2] = experiment: Test B flooded paddy test; type: in vivo, Echinochloa crus-galli; details: 1000 g ai/ha, scale 0 to 100 (0 no effect, 100 complete control)
Summary of the method: as §3

cocklebur = experiment: Test B pre-/postemergence herbicide test; type: in vivo, Xanthium strumarium; details: for Cocklebur plant response rating: postemergence
Summary of the method: (§5)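 Species tested were Echinochloa crus-galli, Ipomoea coccinea, Xanthium strumarium and Oryza sativa, treated both before emergence and at the 1- to 4-leaf stage; rice and barnyardgrass were also tested under flooding at 2 leaves. Greenhouse incubation lasted 13–15 days before visual 0–100 scoring.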

corn = experiment: Test B pre-/postemergence herbicide test; type: in vivo, Zea mays; details: for Corn plant response rating: postemergence
Summary of the method: as §1

giant foxtail [3] = experiment: Test A pre-/postemergence herbicide test; type: in vivo, Setaria faberi
Summary of the method: as §2

large crabgrass [4] = experiment: Test A pre-/postemergence herbicide test; type: in vivo, Digitaria sanguinalis
Summary of the method: as §2

large crabgrass [5] = experiment: Test B pre-/postemergence herbicide test; type: in vivo, Digitaria sanguinalis; details: for Crabgrass, Large plant response rating: postemergence
Summary of the method: as §1

wheat = experiment: Test B postemergence herbicide test; type: in vivo, Triticum aestivum; parameters: key to Wheat plant response rating: 0 = no effect, 100 = complete control; details: postemergence
Summary of the method: as §4

lambsquarters = experiment: Test B pre-/postemergence herbicide test; type: in vivo, Chenopodium album; details: for Lambsquarters plant response rating: postemergence
Summary of the method: as §1

Surinam grass = experiment: Test B pre-/postemergence herbicide test; type: in vivo, Urochloa decumbens; details: for Surinam Grass plant response rating: postemergence
Summary of the method: as §1

morningglory [6] = experiment: Test A pre-/postemergence herbicide test; type: in vivo, Ipomoea spp.
Summary of the method: as §2

barnyardgrass [7] = experiment: Test B pre-/postemergence herbicide test; type: in vivo, Echinochloa crus-galli; details: for Barnyardgrass plant response rating: postemergence
Summary of the method: as §5

ducksalad = experiment: Test B flooded paddy test; type: in vivo, Heteranthera limosa; details: 1000 g ai/ha, scale 0 to 100 (0 no effect, 100 complete control)
Summary of the method: as §3

[8] = tested on: small flower umbrella sedge; experiment: Test B flooded paddy test; type: in vivo, Cyperus difformis; details: 1000 g ai/ha, scale 0 to 100 (0 no effect, 100 complete control)
Summary of the method: as §3

rice [9] = experiment: Test B pre-/postemergence herbicide test; type: in vivo, Oryza sativa; details: preemergence
Summary of the method: as §1

giant foxtail [10] = experiment: Test B pre-/postemergence herbicide test; type: in vivo, Setaria faberi; details: for Foxtail, Giant plant response rating: postemergence
Summary of the method: as §1

barnyardgrass [11] = experiment: Test A pre-/postemergence herbicide test; type: in vivo, Echinochloa crus-galli
Summary of the method: as §2

velvetleaf [12] = experiment: Test B pre-/postemergence herbicide test; type: in vivo, Abutilon theophrasti; details: for Velvetleaf plant response rating: postemergence
Summary of the method: as §1

rice [13] = experiment: Test B flooded paddy test; type: in vivo, Oryza sativa; details: 1000 g ai/ha, scale 0 to 100 (0 no effect, 100 complete control)
Summary of the method: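 Postemergence plants were sprayed with formulated test chemicals at 2 to 18 cm height (1- to 4-leaf stage); paddy species were grown to the 2-leaf stage. After 13 to 15 days in a greenhouse, injury was rated visually against untreated controls on a 0–100 scale (0 = no effect, 100 = complete control).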

morningglory [14] = experiment: Test B pre-/postemergence herbicide test; type: in vivo, Ipomoea coccinea; details: for Morningglory plant response rating: postemergence
Summary of the method: as §5

[15] = 125 g ai/ha, 0 is no effect, 100 is complete control, preemergence
[16] = 125 g ai/ha, visual rating, scale 0 (no effect) to 100 (complete control)
[17] = 500 g ai/ha, visual rating, 0 = no effect, 100 = complete control, preemergence
[18] = 500 g ai/ha, scale 0 to 100, 0 is no effect, 100 is complete control
[19] = Postemergence, 500 g ai/ha, 0 to 100 scale, 0 no effect, 100 complete control
[20] = Postemergence, 2000 g ai/ha, 0 to 100 scale, 0 no effect, 100 complete control
[21] = Preemergence, 2000 g ai/ha, visual rating, 0 to 100 scale (0 no effect, 100 complete control)
[22] = preemergence, 500 g ai/ha, visual injury, 0 to 100 scale (0 no effect, 100 complete control)

## C#CCNC(=O)c1cccc(NC(=O)c2cc(C(C)(C)C)nn2C)n1 [Compound 316]
pigweed; [15]
  Plant response rating (0 to 100 scale), Pigweed: 0
pigweed; [16]
  Pigweed plant response rating: 10
pigweed; [17]
  Plant response rating, Pigweed: 90
pigweed; [18]
  Pigweed plant response rating: 50
Velvetleaf [1]; [19]
  Velvetleaf plant response rating: 15
Velvetleaf [1]; [20]
  Plant response rating, Velvetleaf: 20
Velvetleaf [1]; [21]
  Velvetleaf plant response rating: 15
Velvetleaf [1]; [22]
  Velvetleaf plant response rating: 5
Redroot pigweed; [19]
  Pigweed plant response rating: 25
Redroot pigweed; [20]
  Plant response rating, Pigweed: 80
Redroot pigweed; [21]
  Pigweed plant response rating: 65
Redroot pigweed; [22]
  Pigweed plant response rating: 0
blackgrass; [16]
  Blackgrass plant response rating: 0
blackgrass; [18]
  Blackgrass plant response rating: 0
Wild oat; [16]
  Oat, Wild plant response rating: 0
Wild oat; [18]
  Oat, Wild plant response rating: 20
Barnyardgrass [2]
  Barnyardgrass plant response rating: 0
cocklebur; [15]
  Plant response rating (0 to 100 scale), Cocklebur: 0
cocklebur; [16]
  Cocklebur plant response rating: 0
cocklebur; [17]
  Plant response rating, Cocklebur: 0
cocklebur; [18]
  Cocklebur plant response rating: 20
corn; [15]
  Plant response rating (0 to 100 scale), Corn: 0
corn; [16]
  Corn plant response rating: 10
corn; [17]
  Plant response rating, Corn: 0
corn; [18]
  Corn plant response rating: 20
Giant foxtail [3]; [19]
  Foxtail, Giant plant response rating: 20
Giant foxtail [3]; [20]
  Plant response rating, Foxtail, Giant: 30
Giant foxtail [3]; [21]
  Foxtail, Giant plant response rating: 0
Giant foxtail [3]; [22]
  Foxtail, Giant plant response rating: 0
Large crabgrass [4]; [19]
  Crabgrass, Large plant response rating: 25
Large crabgrass [4]; [20]
  Plant response rating, Crabgrass, Large: 45
Large crabgrass [4]; [21]
  Crabgrass, Large plant response rating: 35
Large crabgrass [4]; [22]
  Crabgrass, Large plant response rating: 10
Large crabgrass [5]; [15]
  Plant response rating (0 to 100 scale), Crabgrass, Large: 0
Large crabgrass [5]; [16]
  Crabgrass, Large plant response rating: 10
Large crabgrass [5]; [17]
  Plant response rating, Crabgrass, Large: 20
Large crabgrass [5]; [18]
  Crabgrass, Large plant response rating: 10
wheat; [16]
  Wheat plant response rating: 0
wheat; [18]
  Wheat plant response rating: 0
lambsquarters; [15]
  Plant response rating (0 to 100 scale), Lambsquarters: 0
lambsquarters; [16]
  Lambsquarters plant response rating: 40
lambsquarters; [17]
  Plant response rating, Lambsquarters: 60
lambsquarters; [18]
  Lambsquarters plant response rating: 70
Surinam grass; [15]
  Plant response rating (0 to 100 scale), Surinam Grass: 0
Surinam grass; [16]
  Surinam Grass plant response rating: 10
Surinam grass; [17]
  Plant response rating, Surinam Grass: 0
Surinam grass; [18]
  Surinam Grass plant response rating: 10
Morningglory [6]; [19]
  Morningglory plant response rating: 20
Morningglory [6]; [20]
  Plant response rating, Morningglory: 30
Morningglory [6]; [21]
  Morningglory plant response rating: 0
Morningglory [6]; [22]
  Morningglory plant response rating: 0
Barnyardgrass [7]; [15]
  Plant response rating (0 to 100 scale), Barnyardgrass: 0
Barnyardgrass [7]; [16]
  Barnyardgrass plant response rating: 0
Barnyardgrass [7]; [17]
  Plant response rating, Barnyardgrass: 0
Barnyardgrass [7]; [18]
  Barnyardgrass plant response rating: 40
ducksalad
  Ducksalad plant response rating: 0
[8]
  Sedge, Umbrella plant response rating: 0
Rice [9]; 125 g ai/ha, 0 is no effect, 100 is complete control
  Plant response rating (0 to 100 scale), Rice: 0
Rice [9]; 500 g ai/ha, visual rating, 0 = no effect, 100 = complete control
  Plant response rating, Rice: 0
Giant foxtail [10]; [15]
  Plant response rating (0 to 100 scale), Foxtail, Giant: 0
Giant foxtail [10]; [16]
  Foxtail, Giant plant response rating: 0
Giant foxtail [10]; [17]
  Plant response rating, Foxtail, Giant: 0
Giant foxtail [10]; [18]
  Foxtail, Giant plant response rating: 20
Barnyardgrass [11]; [19]
  Barnyardgrass plant response rating: 20
Barnyardgrass [11]; [20]
  Plant response rating, Barnyardgrass: 45
Barnyardgrass [11]; [21]
  Barnyardgrass plant response rating: 10
Barnyardgrass [11]; [22]
  Barnyardgrass plant response rating: 0
Velvetleaf [12]; [15]
  Plant response rating (0 to 100 scale), Velvetleaf: 0
Velvetleaf [12]; [16]
  Velvetleaf plant response rating: 0
Velvetleaf [12]; [17]
  Plant response rating, Velvetleaf: 20
Velvetleaf [12]; [18]
  Velvetleaf plant response rating: 40
Rice [13]
  Rice plant response rating: 0
Morningglory [14]; [15]
  Plant response rating (0 to 100 scale), Morningglory: 0
Morningglory [14]; [16]
  Morningglory plant response rating: 10
Morningglory [14]; [17]
  Plant response rating, Morningglory: 0
Morningglory [14]; [18]
  Morningglory plant response rating: 10
